Laboratory results from ChEMBL document CHEMBL1914304 (J Med Chem, 2011).

What was measured:
[1] = test system: Raji; experiment: Cytotoxicity against human Raji cells after 72 hrs by luminescence assay; assay type: cell-based
[2] = test system: HEK293; experiment: Cytotoxicity against human HEK293 cells after 72 hrs by luminescence assay; assay type: cell-based; conditions: hek293, 72 h
[3] = test system: HepG2; experiment: Cytotoxicity against human HepG2 cells after 72 hrs by luminescence assay; assay type: cell-based; conditions: hepg2, 72 h
[4] = Selectivity ratio of EC50 for human HepG2 cells to EC50 for Plasmodium falciparum
[5] = test system: BJ; experiment: Cytotoxicity against human BJ cells after 72 hrs by luminescence assay; assay type: cell-based

| SMILES | Activity [1] | Activity [2] | Activity [3] | selectivity ratio [4] | Activity [5] |
| --- | --- | --- | --- | --- | --- |
| Cl.O=C(CCc1ccc(F)cc1)c1ccccc1OCC(O)CN1CCN(c2ccc(C(F)(F)F)cc2)CC1 (racemic) | Non-toxic | Non-toxic | Non-toxic | > 10 | Non-toxic |
| Cl.O=C(CCc1ccc(F)cc1)c1ccccc1OCC(O)CN1CCN(C(=O)c2ccccc2)CC1 (racemic) | Non-toxic | Non-toxic | Non-toxic | > 10 | Non-toxic |
| CN1CCN(CC(O)COc2ccccc2C(=O)CCc2ccc(F)cc2)CC1.Cl (racemic) | Non-toxic | Non-toxic | Non-toxic | > 10 | Non-toxic |
| CCN1CCN(CC(O)COc2ccccc2C(=O)CCc2ccc(F)cc2)CC1.Cl (racemic) | Non-toxic | Non-toxic | Non-toxic | > 10 | Non-toxic |
| Cl.O=C(CCc1ccc(F)cc1)c1ccccc1OCC(O)CN1CCOCC1 (racemic) | Non-toxic | Non-toxic | Non-toxic | > 10 | Non-toxic |
| Cl.O=C(CCc1ccccc1)c1cc(F)ccc1OCC(O)CN1CCC(Cc2ccccc2)CC1 (racemic) | Non-toxic | Non-toxic | Non-toxic | > 10 | Non-toxic |
| Cl.O=C(CCc1ccccc1)c1cc(F)ccc1OCC(O)CN1CCC(O)(Cc2ccccc2)CC1 (racemic) | Non-toxic | Non-toxic | Non-toxic | > 10 | Non-toxic |
| Cl.O=C(CCc1ccccc1)c1cc(F)ccc1OCC(O)CN1CCNCC1 (racemic) | Non-toxic | Non-toxic | Non-toxic | > 10 | Non-toxic |
| Cl.O=C(CCc1ccccc1)c1cc(F)ccc1OCC(O)CN1CCC(c2ccccc2)CC1 (racemic) | Non-toxic | Non-toxic | Non-toxic | > 10 | Non-toxic |
| Cl.O=C(CCc1ccccc1)c1cc(F)ccc1OCC(O)CN1CCN(c2ccc(Cl)cc2)CC1 (racemic) | Non-toxic | Non-toxic | Non-toxic | > 10 | Non-toxic |
| Cl.O=C(CCc1ccccc1)c1cc(F)ccc1OCC(O)CN1CCN(c2ccccc2)CC1 (racemic) | Non-toxic | Non-toxic | Non-toxic | > 10 | Non-toxic |
| Cl.O=C(CCc1ccccc1)c1cc(F)ccc1OCC(O)CN1CCN(Cc2ccccc2)CC1 (racemic) | Non-toxic | Non-toxic | Non-toxic | > 10 | Non-toxic |
| Cc1ccccc1N1CCN(CC(O)COc2ccc(F)cc2C(=O)CCc2ccccc2)CC1.Cl (racemic) | Non-toxic | Non-toxic | Non-toxic | > 10 | Non-toxic |
| Cc1cccc(N2CCN(CC(O)COc3ccc(F)cc3C(=O)CCc3ccccc3)CC2)c1.Cl (racemic) | Non-toxic | Non-toxic | Non-toxic | > 10 | Non-toxic |
| Cc1ccc(N2CCN(CC(O)COc3ccc(F)cc3C(=O)CCc3ccccc3)CC2)cc1.Cl (racemic) | Non-toxic | Non-toxic | Non-toxic | > 10 | Non-toxic |
| COc1ccccc1N1CCN(CC(O)COc2ccc(F)cc2C(=O)CCc2ccccc2)CC1.Cl (racemic) | Non-toxic | Non-toxic | Non-toxic | > 10 | Non-toxic |
| COc1cccc(N2CCN(CC(O)COc3ccc(F)cc3C(=O)CCc3ccccc3)CC2)c1.Cl (racemic) | Non-toxic | Non-toxic | Non-toxic | > 10 | Non-toxic |
| COc1ccc(N2CCN(CC(O)COc3ccc(F)cc3C(=O)CCc3ccccc3)CC2)cc1.Cl (racemic) | Non-toxic | Non-toxic | Non-toxic | > 10 | Non-toxic |
| Cl.O=C(CCc1ccccc1)c1cc(F)ccc1OCC(O)CN1CCN(c2ccccc2Cl)CC1 (racemic) | Non-toxic | Non-toxic | Non-toxic | > 10 | Non-toxic |

| SMILES | Activity [1] | Activity [2] | Activity [3] | selectivity ratio [4] | Activity [5] |
| --- | --- | --- | --- | --- | --- |
| Cl.O=C(CCc1ccccc1)c1cc(F)ccc1OCC(O)CN1CCN(c2ccc(Cl)c(Cl)c2)CC1 (racemic) | Non-toxic | Non-toxic | Non-toxic | > 10 | Non-toxic |
| Cl.O=C(CCc1ccccc1)c1cc(F)ccc1OCC(O)CN1CCN(c2ccccc2F)CC1 (racemic) | Non-toxic | Non-toxic | Non-toxic | > 10 | Non-toxic |
| Cl.O=C(CCc1ccccc1)c1cc(F)ccc1OCC(O)CN1CCN(c2ccc(F)cc2)CC1 (racemic) | Non-toxic | Non-toxic | Non-toxic | > 10 | Non-toxic |
| Cl.O=C(CCc1ccccc1)c1cc(F)ccc1OCC(O)CN1CCN(c2ccc([N+](=O)[O-])cc2)CC1 (racemic) | Non-toxic | Non-toxic | Non-toxic | > 10 | Non-toxic |
| Cl.Nc1ccc(N2CCN(CC(O)COc3ccc(F)cc3C(=O)CCc3ccccc3)CC2)cc1 (racemic) | Non-toxic | Non-toxic | Non-toxic | > 10 | Non-toxic |
| Cl.O=C(CCc1ccccc1)c1cc(F)ccc1OCC(O)CN1CCN(c2ccc(O)cc2)CC1 (racemic) | Non-toxic | Non-toxic | Non-toxic | > 10 | Non-toxic |
| Cl.O=C(CCc1ccccc1)c1cc(F)ccc1OCC(O)CN1CCN(c2ccc(C(F)(F)F)cc2)CC1 (racemic) | Non-toxic | Non-toxic | Non-toxic | > 10 | Non-toxic |
| Cl.O=C(CCc1ccccc1)c1cc(F)ccc1OCC(O)CN1CCN(C(=O)c2ccccc2)CC1 (racemic) | Non-toxic | Non-toxic | Non-toxic | > 10 | Non-toxic |
| CN1CCN(CC(O)COc2ccc(F)cc2C(=O)CCc2ccccc2)CC1.Cl (racemic) | Non-toxic | Non-toxic | Non-toxic | > 10 | Non-toxic |
| CCN1CCN(CC(O)COc2ccc(F)cc2C(=O)CCc2ccccc2)CC1.Cl (racemic) | Non-toxic | Non-toxic | Non-toxic | > 10 | Non-toxic |
| Cl.O=C(CCc1ccc(F)cc1)c1cc(F)ccc1OCC(O)CN1CCCCC1 (racemic) | Non-toxic | Non-toxic | Non-toxic | > 10 | Non-toxic |
| Cl.O=C(CCc1ccc(F)cc1)c1cc(F)ccc1OCC(O)CN1CCC(c2ccccc2)CC1 (racemic) | Non-toxic | Non-toxic | Non-toxic | > 10 | Non-toxic |
| Cl.O=C(CCc1ccc(F)cc1)c1cc(F)ccc1OCC(O)CN1CCC(Cc2ccccc2)CC1 (racemic) | Non-toxic | Non-toxic | Non-toxic | > 10 | Non-toxic |
| Cl.O=C(CCc1ccc(F)cc1)c1cc(F)ccc1OCC(O)CN1CCC(c2ccc(Cl)cc2)CC1 (racemic) | Non-toxic | Non-toxic | Non-toxic | > 10 | Non-toxic |
| Cl.O=C(CCc1ccc(F)cc1)c1cc(F)ccc1OCC(O)CN1CCC(O)CC1 (racemic) | Non-toxic | Non-toxic | Non-toxic | > 10 | Non-toxic |
| Cl.O=C(CCc1ccc(F)cc1)c1cc(F)ccc1OCC(O)CN1CCC(O)(Cc2ccccc2)CC1 (racemic) | Non-toxic | Non-toxic | Non-toxic | > 10 | Non-toxic |
| Cl.O=C(CCc1ccc(F)cc1)c1cc(F)ccc1OCC(O)CN1CCN(c2ccccc2)CC1 (racemic) | Non-toxic | Non-toxic | Non-toxic | > 10 | Non-toxic |
| Cl.O=C(CCc1ccc(F)cc1)c1cc(F)ccc1OCC(O)CN1CCN(Cc2ccccc2)CC1 (racemic) | Non-toxic | Non-toxic | Non-toxic | > 10 | Non-toxic |
| Cl.O=C(CCc1ccccc1)c1cc(F)ccc1OCC(O)CN1CC[N+]([O-])(c2ccc(Cl)cc2)CC1 (racemic) | Non-toxic | Non-toxic | Non-toxic | > 10 | Non-toxic |
